In ChEMBL document CHEMBL1136578, “Synthesis of non-natural C2-homo-ceramide and its apoptotic activity against HL-60 cells” (2003):

System: HL-60
Assay: Apoptotic activity against HL-60 (Human leukemia) cell after 6 hr of stimulation measured by MTT assay
Format: functional

## CCCCCCCCCCCCCCC[C@@H](O)[C@H](CCO)NC(C)=O
  Apoptosis: 21%

## CCCCCCCCCCCCC/C=C/[C@@H](O)[C@H](CCO)NC(C)=O
  Apoptosis: 48%

## CCCCCCCCCCCCCCC[C@@H](O)[C@H](CCCO)NC(C)=O
  Apoptosis: 20%

## CCCCCCCCCCCCC/C=C/[C@@H](O)[C@H](CCCO)NC(C)=O
  Apoptosis: 52%

## CCCCCCCCCCCCC/C=C/[C@@H](O)[C@H](CO)NC(C)=O (stereo in doubt; form 1)
  Apoptosis: 62%
